Columns and labels:
[1] = test system: rabbits; test: Drought stress test using rabbits (first invention, Test Example 1); assay type: in vivo, Japanese white rabbits; details: 0.5 w/v % or 3 w/v % in saline, 100 μL per eye, eyelids open 3 hours; compared with Mw about 25,000; **p<0.01 Tukey; FIG. 1
Method: Each test substance was prepared by dissolving sodium chondroitin sulfate having a weight-average-molecular weight of about 25,000 (commercially available from Maruha Nichiro Corporation; over-the-counter sodium chondroitin sulfate) or sodium chondroitin sulfate having a weight-average-molecular weight of about 56,000 (commercially available from Seikagaku Corporation; Grade N-K) so that the content was 0.5 w/v % or 3 w/v %, respectively, in a saline (commercially available from Otsuka Pharmaceutical Factory, Inc.).
According to the method used by Nagano et al. (New Ophthalmology, 13(2), 267-270, 1996), rabbits divided into 5 groups (n=5) (Japanese white rabbits (commercially available from Kitayama Labes Co. Ltd.)) were subjected to general anesthesia, and then gloves with ring-shaped fingers were put on their left and right eyeballs and the eyelids were forcibly opened. […] After the cornea was removed from the ocular surface, the methylene blue dye was extracted, and the absorbance was measured using a microplate reader Multiskan GO (commercially available from Thermo Fisher Scientific) at 660 nm. Here, eye dryness caused corneal damage, and increased the amount of dye adhered to the cornea surface, and thus it could be evaluated that the higher the absorbance value, the drier the eyes were.

[2] = test system: human corneal epithelial cell line HCE-T cells; test: Cell dry test (first invention, Test Example 13); assay type: cell-based; details: 8, 13, 14 vs test solution 4; 11, 12 vs test solution 5; 1% vs 0.5%
Method: Ophthalmic compositions were prepared according to a general method using the formulations shown in Table 12 and used as test solutions. The units of the components in Table 12 are w/v % unless specified in the table. 100 μL of human corneal epithelial cell line HCE-T cells at a concentration of 1×10^5 cells/mL was seeded in each well in a 96-well plate (commercially available from Corning Inc.), and cultured in a CO2 incubator set at 37° C., a humidity of 90%, and a concentration of 5% CO2 until the cells became confluent. […] After each ophthalmic composition was removed by suction from each well, drought stress was applied by leaving it in a clean bench for 20 minutes, and the number of viable cells was then evaluated. In order to evaluate the number of viable cells, 10 μL of a cell number measurement reagent (Cell counting kit-8, commercially available from Dojindo Molecular Technologies, Inc.) per 100 μL of the medium was put into each well, and culturing was performed under conditions of 37° C., 5% CO2, and a humidity of 90% for 2 to 3 hours, and measurement was then performed using an absorbance meter (commercially available from MOLECULAR DEVICES) at 450 nm. Here, the higher the value of the absorbance, the greater the number of viable cells.

sodium chondroitin sulfate
absorbance at 660 nm of methylene blue dye extracted from the cornea (corneal damage caused by eye dryness), in words [1]: significantly lower absorbance
number of viable cells after drought stress, comparison in words [2]: the number of viable cells significantly increased at 1%

— patent US20250228887A1, “OPHTHALMIC COMPOSITION” (ROHTO PHARMACEUTICAL CO., LTD., priority 2021, published 2025)
